Reference: US6028195A, “Piperazine derivatives and process for the preparation thereof” (Samjin Pharmaceutical Co., Ltd., priority 1996, dated 2000)
≈ marks a conversion by molar mass, not a printed value. Read-outs that look alike come from different tables or passages of the source.

Experiments:
Type in all cases: cell-based
[1] = test system: SKMEL-2 (human melanoma); experiment: SRB assay, in vitro antitumor effect against SKMEL-2; conditions: Homo sapiens
Procedure: (§1) In vitro antitumor effect against human tumor cell lines.
(§2) b. 5×10^3 ~2×10^4 cells were added into each well of 96-well plate and cultured in 5% CO2 incubator, at 37° C., for 24 hours.
(§3) c. Each sample drug was dissolved in a little DMSO and diluted with the used medium to a prescribed concentration for experiments, wherein the final concentration of DMSO was controlled below 0.5%.
(§4) d. Medium of each well cultured for 24 hours as above b. was removed by aspiration. Each 200 μl of drug samples prepared in c. was added into each well and the wells were cultured for 48 hours. Tz(time zero) plates were collected at the point of time drugs were added.
(§5) e. According to the SRB assay method, cell fixing with TCA, staining with 0.4% SRB solution, washing with 1% acetic acid and elution of dye with 10 mM Tris solution were carried out on Tz plates and culture-ended plates, and then, OD values were measured at 520 nm.
(§6) a. Time zero(Tz) value was determined with measuring the SRB protein value at the point of time drugs were added.
(§7) b. Control value(C) was determined with the OD value of an well untreated with drug.
(§8) c. Drug-treated test value(T) was determined with the OD value of drug-treated well.
(§9) d. Effects of drugs were estimated with growth stimulation, net growth inhibition, net killing etc. calculated from Tz, C and T.
(§10) e. If T≥Tz, cellular response function was calculated by 100×(T-Tz)/(C-Tz), and if T<Tz, by 100×(T-Tz)/Tz.

[2] = test system: SKOV-3 (human ovarian); experiment: SRB assay, in vitro antitumor effect against SKOV-3; conditions: Homo sapiens; SK-OV-3, 48 hours; read-out: ED50 (the source's name)
Procedure: as §1, §2, §3, §4, §5, §6, §7, §8, §9, §10

[3] = test system: XF 498 (human CNS); experiment: SRB assay, in vitro antitumor effect against XF 498; conditions: Homo sapiens, XF498; XF-498, 48 hours; read-out: ED50 (the source's name)
Procedure: as §1, §2, §3, §4, §5, §6, §7, §8, §9, §10

[4] = test system: HCT-15 (human colon); experiment: SRB assay, in vitro antitumor effect against HCT-15; conditions: Homo sapiens
Procedure: as §1, §2, §3, §4, §5, §6, §7, §8, §9, §10

[5] = test system: A549 (human non-small lung cell); experiment: SRB assay, in vitro antitumor effect against A549; conditions: Homo sapiens; A549, 48 hours; read-out: ED50 (the source's name)
Procedure: as §1, §2, §3, §4, §5, §6, §7, §8, §9, §10

[6] = SK-MEL-2, 48 hours, read-out: ED50 (the source's name)
[7] = HCT 15, 48 hours, read-out: ED50 (the source's name)

Row | SMILES | IC50 [1, 6] | IC50 [2] | IC50 [3] | IC50 [4, 7] | IC50 [5] | IC50 ([1]; SK-MEL-2, 48 h, read-out: ED50) | IC50 ([4]; HCT-15, 48 h, read-out: ED50)
1 | COc1nc2ccccc2cc1NC(=S)N1CCN(c2cc(Cl)cc(Cl)c2)CC1 [Example 112, 1-[(2-Methoxyquinolin-3-yl)aminothiocarbonyl]-4-(3,5-dichlorophenyl)piperazine] | 220 ng/mL (≈ 492 nM) | 6430 ng/mL (≈ 14400 nM) | 2070 ng/mL (≈ 4630 nM) | 610 ng/mL (≈ 1360 nM) | 560 ng/mL (≈ 1250 nM) | – | –
2 | COc1cc(OC)cc(N2CCN(C(=O)N(C)c3cc(C)c(C)nc3OC)CC2)c1 [Example 132, 1-[N-(5,6-Dimethyl-2-methoxypyridin-3-yl)-N-methylaminocarbonyl]-4-(3,5-dimethoxyphenyl)piperazine] | 30 ng/mL (≈ 72.4 nM) | 10 ng/mL (≈ 24.1 nM) | 40 ng/mL (≈ 96.5 nM) | 40 ng/mL (≈ 96.5 nM) | 30 ng/mL (≈ 72.4 nM) | – | –
3 | CCN(C(=O)N1CCN(c2cc(OC)cc(OC)c2)CC1)c1cc(C)c(C)nc1OC [Example 133, 1-[N-Ethyl-N-(5,6-dimethyl-2-methoxypyridin-3-yl)aminocarbonyl]-4-(3,5-dimethoxyphenyl)piperazine] | 530 ng/mL (≈ 1240 nM) | 940 ng/mL (≈ 2190 nM) | 610 ng/mL (≈ 1420 nM) | 570 ng/mL (≈ 1330 nM) | 570 ng/mL (≈ 1330 nM) | – | –
4 | COc1cc(OC)cc(N2CCN(C(=O)N(c3cc(C)c(C)nc3OC)C(C)C)CC2)c1 [Example 134, 1-[N-Isopropyl-N-(5,6-dimethyl-2-methoxypyridin-3-yl)aminocarbonyl]-4-(3,5-dimethoxyphenyl)piperazine] | 8.6 ng/mL (≈ 19.4 nM) | 9.1 ng/mL (≈ 20.6 nM) | 2 ng/mL (≈ 4.52 nM) | 6.5 ng/mL (≈ 14.7 nM) | 0.9 ng/mL (≈ 2.03 nM) | – | –
5 | COc1ccc(C)c(N2CCN(C(=O)N(C)c3cc(C)c(C)nc3OC)CC2)c1 [Example 140, 1-[N-(5,6-Dimethyl-2-methoxypyridin-3-yl)-N-methylaminocarbonyl]-4-(5-methoxy-2-methylphenyl)piperazine] | 560 ng/mL (≈ 1410 nM) | 470 ng/mL (≈ 1180 nM) | 540 ng/mL (≈ 1360 nM) | 490 ng/mL (≈ 1230 nM) | 330 ng/mL (≈ 828 nM) | – | –
6 | COc1ccc(C)c(N2CCN(C(=O)N(Cc3ccccc3)c3cc(C)c(C)nc3OC)CC2)c1 [Example 142, 1-[N-Benzyl-N-(5,6-dimethyl-2-methoxypyridin-3-yl)aminocarbonyl]-4-(5-methoxy-2-methylphenyl)piperazine] | 21 ng/mL (≈ 44.2 nM) | 11 ng/mL (≈ 23.2 nM) | 26 ng/mL (≈ 54.8 nM) | 17 ng/mL (≈ 35.8 nM) | 15 ng/mL (≈ 31.6 nM) | – | –
7 | CCc1cc(N(C)C(=O)N2CCN(c3cc(OC)cc(OC)c3)CC2)c(OC)nc1C [Example 143, 1-[N-(5-Ethyl-2-methoxy-6-methylpyridin-3-yl)-N-methylaminocarbonyl]-4-(3,5-dimethoxyphenyl)piperazine] | 12.1 ng/mL (≈ 28.2 nM) | 9.5 ng/mL (≈ 22.2 nM) | 0.9 ng/mL (≈ 2.1 nM) | 10.8 ng/mL (≈ 25.2 nM) | 0.4 ng/mL (≈ 0.933 nM) | – | –
8 | CCc1nc(OC)c(N(C)C(=O)N2CCN(c3cc(OC)cc(OC)c3)CC2)cc1C [Example 147, 1-[N-(6-Ethyl-2-methoxy-5-methylpyridin-3-yl)-N-methylaminocarbonyl]-4-(3,5-dimethoxyphenyl)piperazine] | – | 92 ng/mL (≈ 215 nM) | 466 ng/mL (≈ 1090 nM) | 180 ng/mL (≈ 420 nM) | 31 ng/mL (≈ 72.3 nM) | 24 ng/mL (≈ 56 nM) | –
9 | CCCc1nc(OC)c(N(C)C(=O)N2CCN(c3cc(OC)cc(OC)c3)CC2)cc1C [Example 148, 1-[N-(2-Methoxy-5-methyl-6-propylpyridin-3-yl)-N-methylaminocarbonyl]-4-(3,5-dimethoxyphenyl)piperazine] | 30 ng/mL (≈ 67.8 nM) | 70 ng/mL (≈ 158 nM) | 50 ng/mL (≈ 113 nM) | 50 ng/mL (≈ 113 nM) | 10 ng/mL (≈ 22.6 nM) | – | –
10 | COc1nc(C)c(C(C)=O)cc1N(C)C(=O)N1CCN(c2cc(C)cc(C)c2)CC1 [Example 151, 1-[N-(5-Acetyl-2-methoxy-6-methylpyridin-3-yl)-N-methylaminocarbonyl]-4-(3,5-dimethylphenyl)piperazine] | 7 ng/mL (≈ 17.1 nM) | 8 ng/mL (≈ 19.5 nM) | 7 ng/mL (≈ 17.1 nM) | 37 ng/mL (≈ 90.1 nM) | 4 ng/mL (≈ 9.74 nM) | – | –
11 | COc1cc(OC)cc(N2CCN(C(=O)N(C)c3cc(C(C)O)c(C)nc3OC)CC2)c1 (stereo not drawn) [Example 152, 1-{N-[5-(1-Hydroxyethyl)-2-methoxy-6-methylpyridin-3-yl]-N-methylaminocarbonyl}-4-(3,5-dimethoxyphenyl)piperazine] | 200 ng/mL (≈ 450 nM) | 370 ng/mL (≈ 832 nM) | 260 ng/mL (≈ 585 nM) | 440 ng/mL (≈ 990 nM) | 180 ng/mL (≈ 405 nM) | – | –
12 | CCC(C)(O)c1cc(N(C)C(=O)N2CCN(c3cc(C)cc(C)c3)CC2)c(OC)nc1C (stereo not drawn) [Example 156, 1-{N-[5-(1-Hydroxy-1-methylpropyl)-2-methoxy-6-methylpyridin-3-yl]-N-methylaminocarbonyl}-4-(3,5-dimethylphenyl)piperazine] | 90 ng/mL (≈ 204 nM) | 100 ng/mL (≈ 227 nM) | 60 ng/mL (≈ 136 nM) | 70 ng/mL (≈ 159 nM) | 60 ng/mL (≈ 136 nM) | – | –
13 | COc1cc(OC)cc(N2CCN(C(=O)N(C)c3cc(C(C)OC)c(C)nc3OC)CC2)c1 (stereo not drawn) [Example 157, 1-{N-[2-Methoxy-5-(1-methoxyethyl)-6-methylpyridin-3-yl]-N-methylaminocarbonyl}-4-(3,5-dimethoxyphenyl)piperazine] | 0.043 ng/mL (≈ 0.0938 nM) | 0.002 ng/mL (≈ 0.00436 nM) | 0.245 ng/mL (≈ 0.534 nM) | 0.211 ng/mL (≈ 0.46 nM) | 0.002 ng/mL (≈ 0.00436 nM) | – | –
14 | C=Cc1cc(N(C)C(=O)N2CCN(c3cc(C)cc(C)c3)CC2)c(OC)nc1C [Example 159, 1-[N-(2-Methoxy-6-methyl-5-vinylpyridin-3-yl)-N-methylaminocarbonyl]-4-(3,5-dimethylphenyl)piperazine] | 70 ng/mL (≈ 177 nM) | 100 ng/mL (≈ 253 nM) | 210 ng/mL (≈ 532 nM) | 170 ng/mL (≈ 431 nM) | 50 ng/mL (≈ 127 nM) | – | –
15 | COc1cc(C)c(C)cc1NC(=O)N1CCN(c2c(C)c(C)cc(C)c2C)CC1 [Example 174, 1-[(4,5-Dimethyl-2-methoxyphenyl)aminocarbonyl]-4-(2,3,5,6-tetramethylphenyl)piperazine] | 270 ng/mL (≈ 683 nM) | 560 ng/mL (≈ 1420 nM) | 490 ng/mL (≈ 1240 nM) | 330 ng/mL (≈ 834 nM) | 540 ng/mL (≈ 1370 nM) | – | –
16 | COc1cc(C)c(C)cc1NC(=O)N1CCN(c2cccc(Cl)c2)CC1 [Example 177, 1-[(4,5-Dimethyl-2-methoxyphenyl)aminocarbonyl]-4-(3-chlorophenyl)piperazine] | 170 ng/mL (≈ 455 nM) | 390 ng/mL (≈ 1040 nM) | 120 ng/mL (≈ 321 nM) | 90 ng/mL (≈ 241 nM) | 520 ng/mL (≈ 1390 nM) | – | –
17 | COc1cc(C)c(C)cc1NC(=O)N1CCN(c2cccc(O)c2)CC1 [Example 179, 1-[(4,5-Dimethyl-2-methoxyphenyl)aminocarbonyl]-4-(3-hydroxylphenyl)piperazine] | 720 ng/mL (≈ 2030 nM) | 980 ng/mL (≈ 2760 nM) | 740 ng/mL (≈ 2080 nM) | 630 ng/mL (≈ 1770 nM) | 1040 ng/mL (≈ 2930 nM) | – | –
18 | COc1cc(C)c(C)cc1NC(=O)N1CCN(c2ccccc2OC)CC1 [Example 183, 1-[(4,5-Dimethyl-2-methoxyphenyl)aminocarbonyl]-4-(2-methoxyphenyl)piperazine] | 1170 ng/mL (≈ 3170 nM) | 2270 ng/mL (≈ 6140 nM) | 1410 ng/mL (≈ 3820 nM) | 2090 ng/mL (≈ 5660 nM) | 420 ng/mL (≈ 1140 nM) | – | –
19 | COc1cc(OC)cc(N2CCN(C(=O)N(C)c3cc(C)c(C)cc3OC)CC2)c1 [Example 190, 1-[N-(4,5-Dimethyl-2-methoxyphenyl)-N-methylaminocarbonyl]-4-(3,5-dimethoxyphenyl)piperazine] | 2 ng/mL (≈ 4.84 nM) | 8 ng/mL (≈ 19.3 nM) | 443 ng/mL (≈ 1070 nM) | 17 ng/mL (≈ 41.1 nM) | 4 ng/mL (≈ 9.67 nM) | – | –
20 | COc1cc(C)c(C)cc1N(C)C(=O)N1CCN(c2cc(C)cc(C)c2)CC1 [Example 191, 1-[N-(4,5-Dimethyl-2-methoxyphenyl)-N-methylaminocarbonyl]-4-(3,5-dimethylphenyl)piperazine] | 60 ng/mL (≈ 157 nM) | 280 ng/mL (≈ 734 nM) | 470 ng/mL (≈ 1230 nM) | 400 ng/mL (≈ 1050 nM) | 90 ng/mL (≈ 236 nM) | – | –
21 | COc1cc(C)c(C)cc1NC(=S)N1CCN(c2cc(C)cc(C)c2)CC1 [Example 198, 1-[(4,5-Dimethyl-2-methoxyphenyl)aminothiocarbonyl]-4-(3,5-dimethylphenyl)piperazine] | 8 ng/mL (≈ 20.9 nM) | 68 ng/mL (≈ 177 nM) | 72 ng/mL (≈ 188 nM) | 560 ng/mL (≈ 1460 nM) | 21 ng/mL (≈ 54.8 nM) | – | –
22 | COc1cc(C)c(C)cc1NC(=S)N1CCN(c2cc(F)cc(F)c2)CC1 [Example 200, 1-[(4,5-Dimethyl-2-methoxyphenyl)aminothiocarbonyl]-4-(3,5-difluorophenyl)piperazine] | 260 ng/mL (≈ 664 nM) | 530 ng/mL (≈ 1350 nM) | 1010 ng/mL (≈ 2580 nM) | 440 ng/mL (≈ 1120 nM) | 500 ng/mL (≈ 1280 nM) | – | –
23 | COc1cc(C)c(C)cc1NC(=S)N1CCN(c2cc(Cl)cc(Cl)c2)CC1 [Example 201, 1-[(4,5-Dimethyl-2-methoxyphenyl)aminothiocarbonyl]-4-(3,5-dichlorophenyl)piperazine] | 49 ng/mL (≈ 115 nM) | 53 ng/mL (≈ 125 nM) | 26 ng/mL (≈ 61.3 nM) | – | 14 ng/mL (≈ 33 nM) | – | 71 ng/mL (≈ 167 nM)
24 | COc1cc(C)c(C)cc1NC(=S)N1CCN(c2ccccc2F)CC1 [Example 202, 1-[(4,5-Dimethyl-2-methoxyphenyl)amminothiocarbonyl]-4-(2-fluorophenyl)piperazine] | 480 ng/mL (≈ 1290 nM) | 1260 ng/mL (≈ 3370 nM) | 2090 ng/mL (≈ 5600 nM) | 640 ng/mL (≈ 1710 nM) | 570 ng/mL (≈ 1530 nM) | – | –
